Where two headings read alike, the source gives them in different places.
Columns and labels:
Type in all cases: cell-based
[1] = target: hKv1.3 (Homo sapiens, UniProt P22001); assay: cell-based; conditions: Kv1.3 (IWQ) IC50 (nM, Avg)
[2] = tested on: IFN-g secretion from T cells in human whole blood
[3] = tested on: IL-2 secretion from T cells in human whole blood; conditions: read-out: WB (IL-2) IC50 (nM, Avg)
[4] = read-out: WB (IFNg) IC50 (nM, Avg)

Chain of hKv1.3 (P22001 whole entry): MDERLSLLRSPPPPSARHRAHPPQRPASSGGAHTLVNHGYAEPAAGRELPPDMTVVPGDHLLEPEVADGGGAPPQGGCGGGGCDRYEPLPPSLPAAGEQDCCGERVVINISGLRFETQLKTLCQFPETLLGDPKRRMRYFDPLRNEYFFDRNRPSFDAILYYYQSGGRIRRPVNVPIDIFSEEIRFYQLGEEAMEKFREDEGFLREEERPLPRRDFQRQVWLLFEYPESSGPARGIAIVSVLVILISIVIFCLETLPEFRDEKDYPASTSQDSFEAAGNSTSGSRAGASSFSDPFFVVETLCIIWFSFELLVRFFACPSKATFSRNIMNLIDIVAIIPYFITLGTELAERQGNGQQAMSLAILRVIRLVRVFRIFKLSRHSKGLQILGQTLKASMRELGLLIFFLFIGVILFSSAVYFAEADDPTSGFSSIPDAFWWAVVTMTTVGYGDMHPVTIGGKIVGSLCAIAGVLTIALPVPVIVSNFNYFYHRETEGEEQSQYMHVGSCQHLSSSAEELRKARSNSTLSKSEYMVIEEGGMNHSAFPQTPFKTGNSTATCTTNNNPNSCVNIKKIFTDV

Structure (SMILES)	IC50 [1]	IC50 [2, 4]	IC50 [3]	IC50 ([2]; read-out: WB (IFNg) IC5- (nM, Avg))
CCCC[C@@H]1NC(=O)[C@H](CO)NC(=O)[C@H](Cc2c[nH]cn2)NC(=O)[C@H](CCCCN)NC(=O)[C@@H]2CSSC[C@@H]3NC(=O)[C@H]([C@@H](C)O)NC(=O)[C@H](CCCCN)NC(=O)[C@H](CCCNC(=N)N)NC(=O)[C@H](CSSC[C@H](NC(=O)[C@H](CCCNC(=N)N)NC(=O)[C@H](CO)NC(=O)[C@H](CCCCN)NC(=O)[C@@H]4CCCN4C(=O)[C@H]([C@@H](C)CC)NC(=O)[C@H]([C@@H](C)O)NC(=O)[C@H](CC(=O)O)NC(=O)[C@H](CCC(=O)O)NC(=O)[C@@H](NC(=O)[C@H](CO)NC(=O)[C@@H](N)CCCNC(=N)N)CSSC[C@@H](C(=O)N[C@@H](C)C(=O)O)NC(=O)[C@H]([C@@H](C)O)NC(=O)CNC3=O)C(=O)N[C@@H]([C@@H](C)O)C(=O)N[C@@H](C)C(=O)N[C@@H](Cc3ccccc3)C(=O)N[C@@H](CCCCN)C(=O)N2)NC(=O)[C@H](Cc2ccccc2)NC(=O)[C@H](CO)NC(=O)[C@H](CC(C)C)NC(=O)[C@H](CCCNC(=N)N)NC(=O)[C@H](Cc2ccc(O)cc2)NC(=O)[C@H](CCCCN)NC1=O [[Glu4,Lys16,N1e21]ShK-Ala]	33.3 nM	0.987 nM	0.327 nM	
CCCC[C@@H]1NC(=O)[C@H](CO)NC(=O)[C@H](Cc2c[nH]cn2)NC(=O)[C@H](CCC(=O)O)NC(=O)[C@@H]2CSSC[C@@H]3NC(=O)[C@H]([C@@H](C)O)NC(=O)[C@H](CCCCN)NC(=O)[C@H](CCCNC(=N)N)NC(=O)[C@H](CSSC[C@H](NC(=O)[C@H](CCCNC(=N)N)NC(=O)[C@H](CO)NC(=O)[C@H](CCCCN)NC(=O)[C@@H]4CCCN4C(=O)[C@H]([C@@H](C)CC)NC(=O)[C@H]([C@@H](C)O)NC(=O)[C@H](CC(=O)O)NC(=O)[C@H]([C@@H](C)CC)NC(=O)[C@@H](NC(=O)[C@H](CO)NC(=O)[C@@H](N)CCCNC(=N)N)CSSC[C@@H](C(N)=O)NC(=O)[C@H]([C@@H](C)O)NC(=O)CNC3=O)C(=O)N[C@@H]([C@@H](C)O)C(=O)N[C@@H](C)C(=O)N[C@@H](Cc3ccccc3)C(=O)N[C@@H](CCCCN)C(=O)N2)NC(=O)[C@H](Cc2ccccc2)NC(=O)[C@H](CO)NC(=O)[C@H](CC(C)C)NC(=O)[C@H](CCCNC(=N)N)NC(=O)[C@H](Cc2ccc(O)cc2)NC(=O)[C@H](CCCCN)NC1=O [[Lys16,Glu18,Nle21]ShK-amide]	0.28 nM	0.929 nM	0.477 nM	
CC[C@H](C)[C@@H]1NC(=O)[C@@H](NC(=O)[C@H](CO)NC(=O)[C@@H](N)CCCNC(=N)N)CSSC[C@@H](C(=O)O)NC(=O)[C@H]([C@@H](C)O)NC(=O)CNC(=O)[C@@H]2CSSC[C@@H]3NC(=O)[C@H](CCC(N)=O)NC(=O)[C@H](Cc4ccccc4)NC(=O)[C@H](C)NC(=O)[C@H]([C@@H](C)O)NC(=O)[C@H](CSSC[C@H](NC(=O)[C@H](Cc4ccccc4)NC(=O)[C@H](CO)NC(=O)[C@H](CC(C)C)NC(=O)[C@H](CCCNC(=N)N)NC(=O)[C@H](Cc4ccc(O)cc4)NC(=O)[C@H](CCCCN)NC(=O)[C@H](CCSC)NC(=O)[C@H](CO)NC(=O)[C@H](Cc4c[nH]cn4)NC(=O)[C@H](CCCCN)NC3=O)C(=O)N[C@@H](CCCNC(=N)N)C(=O)N[C@@H](CCCCN)C(=O)N[C@@H]([C@@H](C)O)C(=O)N2)NC(=O)[C@H](CCCNC(=N)N)NC(=O)[C@H](CO)NC(=O)[C@H](CCCCN)NC(=O)[C@@H]2CCCN2C(=O)[C@H](CCC(=O)O)NC(=O)[C@H]([C@@H](C)O)NC(=O)[C@H](CC(=O)O)NC1=O [[Glu7]ShK]	1.25 nM		5 nM	19.5 nM
CC[C@H](C)[C@@H]1NC(=O)[C@@H](NC(=O)[C@H](CO)NC(=O)[C@@H](N)CCCNC(=N)N)CSSC[C@@H](C(=O)O)NC(=O)[C@H]([C@@H](C)O)NC(=O)CNC(=O)[C@@H]2CSSC[C@@H]3NC(=O)[C@H](CCC(N)=O)NC(=O)[C@H](Cc4ccccc4)NC(=O)[C@H](C)NC(=O)[C@H]([C@@H](C)O)NC(=O)[C@H](CSSC[C@H](NC(=O)[C@H](Cc4ccccc4)NC(=O)[C@H](CO)NC(=O)[C@H](CC(C)C)NC(=O)[C@H](CCCNC(=N)N)NC(=O)[C@H](Cc4ccc(O)cc4)NC(=O)[C@H](CCCCN)NC(=O)[C@H](CCSC)NC(=O)[C@H](CO)NC(=O)[C@H](Cc4c[nH]cn4)NC(=O)[C@H](CCCCN)NC3=O)C(=O)N[C@@H](CCCNC(=N)N)C(=O)N[C@@H](CCCCN)C(=O)N[C@@H]([C@@H](C)O)C(=O)N2)NC(=O)[C@H](CCCNC(=N)N)NC(=O)[C@H](CO)NC(=O)[C@H](CCCCN)NC(=O)[C@@H]2CCCN2C(=O)[C@H]([C@@H](C)CC)NC(=O)[C@H]([C@@H](C)O)NC(=O)[C@H](Cc2cccc3ccccc23)NC1=O [[1-Nal5]ShK]	3.3 nM	31.9 nM	70.4 nM	
CC[C@H](C)[C@@H]1NC(=O)[C@@H](NC(=O)[C@H](CO)NC(=O)[C@@H](N)CCCNC(=N)N)CSSC[C@@H](C(N)=O)NC(=O)[C@H]([C@@H](C)O)NC(=O)CNC(=O)[C@@H]2CSSC[C@@H]3NC(=O)[C@H](CCCCN)NC(=O)[C@H](Cc4ccccc4)NC(=O)[C@H](C)NC(=O)[C@H]([C@@H](C)O)NC(=O)[C@H](CSSC[C@H](NC(=O)[C@H](Cc4cccc5ccccc45)NC(=O)[C@H](CO)NC(=O)[C@H](CC(C)C)NC(=O)[C@H](CCCNC(=N)N)NC(=O)[C@H](Cc4ccc(O)cc4)NC(=O)[C@H](CCCCN)NC(=O)[C@H](CCSC)NC(=O)[C@H](CO)NC(=O)[C@H](Cc4c[nH]cn4)NC(=O)[C@H](CCCCN)NC3=O)C(=O)N[C@@H](CCCNC(=N)N)C(=O)N[C@@H](CCCCN)C(=O)N[C@@H]([C@@H](C)O)C(=O)N2)NC(=O)[C@H](CCCNC(=N)N)NC(=O)[C@H](CO)NC(=O)[C@H](CCCCN)NC(=O)[C@@H]2CCCN2C(=O)[C@H]([C@@H](C)CC)NC(=O)[C@H]([C@@H](C)O)NC(=O)[C@H](CC(=O)O)NC1=O [[Lys16,1-Na127]ShK-amide]	0.299 nM	2.94 nM	3.95 nM	
CCC[C@@H]1NC(=O)[C@H](CO)NC(=O)[C@H](Cc2c[nH]cn2)NC(=O)[C@H](CCCCN)NC(=O)[C@@H]2CSSC[C@@H]3NC(=O)[C@H]([C@@H](C)O)NC(=O)[C@H](CCCCN)NC(=O)[C@H](CCCNC(=N)N)NC(=O)[C@H](CSSC[C@H](NC(=O)[C@H](CCCNC(=N)N)NC(=O)[C@H](CO)NC(=O)[C@H](CCCCN)NC(=O)[C@@H]4CCCN4C(=O)[C@H]([C@@H](C)CC)NC(=O)[C@H]([C@@H](C)O)NC(=O)[C@H](CC(=O)O)NC(=O)[C@H](CCC(=O)O)NC(=O)[C@@H](NC(=O)[C@H](CO)NC(=O)[C@@H](N)CCCNC(=N)N)CSSC[C@@H](C(N)=O)NC(=O)[C@H]([C@@H](C)O)NC(=O)CNC3=O)C(=O)N[C@@H]([C@@H](C)O)C(=O)N[C@@H](C)C(=O)N[C@@H](Cc3ccccc3)C(=O)N[C@@H](CCCCN)C(=O)N2)NC(=O)[C@H](Cc2ccccc2)NC(=O)[C@H](CO)NC(=O)[C@H](CC(C)C)NC(=O)[C@H](CCCNC(=N)N)NC(=O)[C@H](Cc2ccc(O)cc2)NC(=O)[C@H](CCCCN)NC1=O [[Glu4, Lys16,Nva21]ShK-amide]	0.086 nM	0.427 nM	0.405 nM	
CC[C@H](C)[C@@H]1NC(=O)[C@@H](NC(=O)[C@H](CO)NC(=O)[C@@H](N)CCCNC(=N)N)CSSC[C@@H](C(=O)O)NC(=O)[C@H]([C@@H](C)O)NC(=O)CNC(=O)[C@@H]2CSSC[C@@H]3NC(=O)[C@H](CCC(N)=O)NC(=O)[C@H](Cc4ccccc4)NC(=O)[C@H](C)NC(=O)[C@H]([C@@H](C)O)NC(=O)[C@H](CSSC[C@H](NC(=O)[C@H](Cc4ccccc4)NC(=O)[C@H](CO)NC(=O)[C@H](CC(C)C)NC(=O)[C@H](CCCNC(=N)N)NC(=O)[C@H](Cc4ccc(O)cc4)NC(=O)[C@H](CCCCN)NC(=O)[C@H](CCSC)NC(=O)[C@H](CO)NC(=O)[C@H](Cc4c[nH]cn4)NC(=O)[C@H](CCCCN)NC3=O)C(=O)N[C@@H](CCCNC(=N)N)C(=O)N[C@@H](CCCCN)C(=O)N[C@@H]([C@@H](C)O)C(=O)N2)NC(=O)[C@H](CCCNC(=N)N)NC(=O)[C@H](Cc2cccc3ccccc23)NC(=O)[C@H](CCCCN)NC(=O)[C@@H]2CCCN2C(=O)[C@H]([C@@H](C)CC)NC(=O)[C@H]([C@@H](C)O)NC(=O)[C@H](CC(=O)O)NC1=O [[1-Nal10]ShK]	0.206 nM	0.255 nM	0.205 nM	
CC[C@H](C)[C@@H]1NC(=O)[C@@H](NC(=O)[C@H](CO)NC(=O)[C@@H](N)CCCNC(=N)N)CSSC[C@@H](C(=O)O)NC(=O)[C@H]([C@@H](C)O)NC(=O)CNC(=O)[C@@H]2CSSC[C@@H]3NC(=O)[C@H](CCC(N)=O)NC(=O)[C@H](Cc4ccccc4)NC(=O)[C@H](C)NC(=O)[C@H]([C@@H](C)O)NC(=O)[C@H](CSSC[C@H](NC(=O)[C@H](Cc4cccc5ccccc45)NC(=O)[C@H](CO)NC(=O)[C@H](CC(C)C)NC(=O)[C@H](CCCNC(=N)N)NC(=O)[C@H](Cc4ccc(O)cc4)NC(=O)[C@H](CCCCN)NC(=O)[C@H](CCSC)NC(=O)[C@H](CO)NC(=O)[C@H](Cc4c[nH]cn4)NC(=O)[C@H](CCCCN)NC3=O)C(=O)N[C@@H](CCCNC(=N)N)C(=O)N[C@@H](CCCCN)C(=O)N[C@@H]([C@@H](C)O)C(=O)N2)NC(=O)[C@H](CCCNC(=N)N)NC(=O)[C@H](CO)NC(=O)[C@H](CCCCN)NC(=O)[C@@H]2CCCN2C(=O)[C@H]([C@@H](C)CC)NC(=O)[C@H]([C@@H](C)O)NC(=O)[C@H](CC(=O)O)NC1=O [[1-Nal27]ShK]	0.144 nM	2.84 nM	1.07 nM	
